We go through 15 compounds from patent publication US20260159481A1, “INDOLE DERIVATIVE WITH SUBSTITUENT AND PHARMACEUTICAL USE” (MITOIMMUNE THERAPEUTICS INC., priority 2023, published 2026).

This experiment has as its system cardiac cells (H9C2). The experiment in a line: Protective effect against t-BHP-induced cell death in cardiac cells (LDH release). Format: cell-based. Particulars: Rattus norvegicus, t-BHP 400 PM, 2 hours, read-out: EC50, protective effect against cell death due to t-BHP induction. Here is the method: To confirm a protective effect on cardiac cells, H9C2 cells were seeded at 1.5×10^4 cells/well in a 96-well plate and cultured for 24 hours. The example compounds were diluted to have the final concentration of 0.001, 0.01, 0.03, 0.1, 0.3, 1, 3, 10, and 30 PM, respectively, and then added to different wells, and the resulting cells were cultured for 15 to 20 minutes. Tert-butyl hydroperoxide (t-BHP) was treated to have the final concentration of 400 PM, and the resulting cells were cultured for 2 hours. To confirm the cell death protection effect of each compound, the degree of extracellular secretion of lactate dehydrogenase (LDH) was measured using a cytotoxicity LDH assay kit [Dojindo; CK12]. Briefly, after 2 hours of t-BHP treatment on the cells, 70 μL of the supernatant was taken from the 96-well plate where the cells were cultured and transferred to a new 96-well plate. The assay buffer included in the kit was added at 70 μL/well (equal to that of the sample) and the plate was covered with foil to block light and allowed to react for 15 minutes at room temperature. While observing a color change of each sample, 35 μL/well of a stop solution was added, an absorbance at 490 nm was measured using an iD3 spectrophotometer, and an EC50 value was calculated.
(In general: Release of lactate dehydrogenase indicates damage to the cell membrane.)
The term EC50 denotes the midpoint of the concentration-response curve. As to `O=S1(=O)CCN(CCOCc2cc(NC3CCOCC3)c3[nH]c(-c4ccccc4)cc3c2)CC1` [Example 47, 4-(2-((2-phenyl-7-((tetrahydro-2H-pyran-4-yl)amino)-1H-indol-5-yl)methoxy)ethyl)thiomorpholine 1,1-dioxide], the EC50 lay within 300 to 1000 nM.

As for `OCCCOCCOCc1cc(NC2CCOCC2)c2[nH]c(-c3ccccc3)cc2c1` [Example 34, 3-(2-((2-phenyl-7-((tetrahydro-2H-pyran-4-yl)amino)-1H-indol-5-yl)methoxy)ethoxy)propan-1-ol], the EC50 was no more than 300 nM. For the compound `CCC(O)(CC)COCCOCc1cc(NC2CCOCC2)c2[nH]c(-c3ccccc3)cc2c1` [Example 32, 3-((2-((2-phenyl-7-((tetrahydro-2H-pyran-4-yl)amino)-1H-indol-5-yl)methoxy)ethoxy)methyl)pentan-3-ol], the EC50 is no more than 300 nM. Regarding `CCN(CC)C(=O)Cc1cc(NCc2ccncc2)c2[nH]c(-c3ccccc3)cc2c1` [Example 13, N,N-diethyl-2-(2-phenyl-7-((pyridin-4-ylmethyl)amino)-1H-indol-5-yl)acetamide], the EC50 lay in the range of 300 to 1000 nM. To `FCCOCc1cc(NC2CCOCC2)c2[nH]c(-c3ccccc3)cc2c1` [Example 39, 5-((2-fluoroethoxy)methyl)-2-phenyl-N-(tetrahydro-2H-pyran-4-yl)-1H-indol-7-amine] belongs no more than 300 nM. With `CC(C)(O)C#Cc1cc(NC2CCOCC2)c2[nH]c(-c3ccccc3)cc2c1` [Example 24, 2-methyl-4-(2-phenyl-7-((tetrahydro-2H-pyran-4-yl)amino)-1H-indol-5-yl)but-3-yn-2-ol], the EC50 was no more than 300 nM. As for `CCN(CC)C(=O)c1cc(NCc2ccncc2)c2[nH]c(-c3ccccc3)cc2c1` [Example 4, N,N-diethyl-2-phenyl-7-((pyridin-4-ylmethyl)amino)-1H-indole-5-carboxamide], the EC50 was no more than 300 nM.

Turning to `COCCN(C)Cc1cc(NC2CCOCC2)c2[nH]c(-c3ccccc3)cc2c1` [Example 55, 5-(((2-methoxyethyl)(methyl)amino)methyl)-2-phenyl-N-(tetrahydro-2H-pyran-4-yl)-1H-indol-7-amine], the EC50 was no more than 300 nM. On to `COCCOCCNCc1cc(NC2CCOCC2)c2[nH]c(-c3ccccc3)cc2c1` [Example 57, 5-(((2-(2-methoxyethoxy)ethyl)amino)methyl)-2-phenyl-N-(tetrahydro-2H-pyran-4-yl)-1H-indol-7-amine], for which the EC50 was no more than 300 nM.

With `COCCN(C)C(=O)c1cc(NC2CCOCC2)c2[nH]c(-c3ccccc3)cc2c1` [Example 51, N-(2-methoxyethyl)-N-methyl-2-phenyl-7-((tetrahydro-2H-pyran-4-yl)amino)-1H-indole-5-carboxamide], the EC50 is no more than 300 nM. `OCCNCCOCc1cc(NC2CCOCC2)c2[nH]c(-c3ccccc3)cc2c1` [Example 48, 2-((2-((2-phenyl-7-((tetrahydro-2H-pyran-4-yl)amino)-1H-indol-5-yl)methoxy)ethyl)amino)ethan-1-ol]: the EC50 was 300 to 1000 nM.

With `COCCOCCN(C)C(=O)c1cc(NC2CCOCC2)c2[nH]c(-c3ccccc3)cc2c1` [Example 52, N-(2-(2-methoxyethoxy)ethyl)-N-methyl-2-phenyl-7-((tetrahydro-2H-pyran-4-yl)amino)-1H-indole-5-carboxamide], the EC50 is greater than 1000 nM. The figure for `CCN(CC)C(=O)Cc1cc(NC2CCOCC2)c2[nH]c(-c3ccccc3)cc2c1` [Example 12, N,N-diethyl-2-(2-phenyl-7-((tetrahydro-2H-pyran-4-yl)amino)-1H-indol-5-yl)acetamide] is no more than 300 nM. `CCN(CC)C(=O)c1cc(NC2CCCC2)c2[nH]c(-c3ccccc3)cc2c1` [Example 1, 7-(cyclopentylamino)-N,N-diethyl-2-phenyl-1H-indol-5-carboxamide]: the EC50 is no more than 300 nM. For the compound `c1ccc(-c2cc3cc(COC4CCOCC4)cc(NC4CCOCC4)c3[nH]2)cc1` [Example 37, 2-phenyl-N-(tetrahydro-2H-pyran-4-yl)-5-(((tetrahydro-2H-pyran-4-yl)oxy)methyl)-1H-indol-7-amine], the EC50 is no more than 300 nM.
